Assay results reported in patent publication US7795254B2, “Benzomorpholine derivatives and methods of use” (Amgen Inc., priority 2007, dated 2010).
Structures can show the parent of a compound that is named as a salt. Where two headings read alike, the source gives them in different places. Blank lines part the entries; values can stand above or below the compound they belong to.

What was measured:
[1] = Exposure (AUC) in the rat corneal angiogenesis study; format: in vivo; conditions: female, CD, rat, in vivo
Method: (§1) Tables 2 through 6 below describe the results obtained in the rat corneal in vivo model of angiogenesis for (1) reference compound (free base) 1, (2) Compound A (free base), and (3) the hydrochloride salt of Compound A. A VEGF-induced rat corneal angiogenesis assay was performed using the following procedure: • In Life Aspects: Female CD rats weighing approximately 250 grams were randomized into one of six treatment groups. On the day of surgery the rats were temporarily anesthetized using isoflurane. A vertical incision was made on the midline of the cornea and a pocket was created to separate the connective tissue layers of the stroma. The distance between the apex of the pocket and the limbus was approximately 1.8 mm. A presoaked nylon filter disk was inserted to the apex of the pocket (in the case of the control treatment group, the disks were soaked in a buffer containing bovine serum albumin; in the remaining treatment groups, the disks were soaked in buffer containing bovine serum albumin plus human VEGF to induce angiogenesis). The different treatment groups were then dosed daily with either vehicle (Ora Plus™, a commercially available vehicle) or a designated amount of test compound formulated in vehicle. • Study Termination and Analysis: After seven days, the rats were euthanized and the implanted corneas photographed using a Nikon SV-3 Ophthalmic Slit Lamp. Numerical data were generated from the digital images using the Metamorph image analysis system (Universal Imaging). Three endpoints were analyzed on each corneal image: (1) disk placement distance from the limbus, (2) number of vessels intersecting a perpendicular line at the midpoint of the disk placement distance, and (3) blood vessel area, as determined by thresholding and automated pixel counting. Only the number of blood vessels is shown in the tables as this endpoint correlated well with the blood vessel area. • Statistical Analysis: Results were analyzed with the StatView statistical program using one-way ANOVA, followed by Fisher's least significant difference test. Data are presented as mean±SE and P<0.05 was considered significant. AUC and ED50 values were calculated using methods well known in the art.

[2] = Water absorption of the hydrous hydrochloride form; format: physicochemical; conditions: 90% relative humidity and 25° C.
Text: The hydrochloride salt is formed by preparing a solution of Compound A free base in ethanol and adding hydrochloric acid in slight molar excess with stirring and optional heat. Spontaneous salt formation occurred both with and without the application of heating and cooling. The hydrochloride salt is known to exist in at least one anhydrous form, which has been confirmed by single-crystal X-ray analysis, and at least one hydrous form. The anhydrous form of the hydrochloride salt is crystalline and decomposes near 230° C. when heated at a rate of 10° C./minute. The hydrous form of Compound A hydrochloride has been obtained by suspending the anhydrous hydrochloride material in water or in dilute aqueous solutions of hydrochloric acid. The hydrous material is crystalline, can freely absorb up to 4 molar equivalents of water at 90% relative humidity and 25° C., and appears to fully dehydrate by 150° C. and decompose near 170° C. when heated at a rate of 10° C./minute. Both the anhydrous and hydrous forms of Compound A hydrochloride have unique X-ray powder diffraction patterns, the major peaks of which are described below: […]

[3] = system: VEGF-induced rat corneal angiogenesis; experiment: VEGF-induced rat corneal angiogenesis assay; format: in vivo; conditions: for Average # of Vessels: 7 days
Method: as §1

KDR = KDR (Homo sapiens, UniProt P35968); experiment: KDR inhibition of metabolites; format: biochemical; conditions: metabolites of Compound A
KDR, sequence (P35968 20-1356, species assumed): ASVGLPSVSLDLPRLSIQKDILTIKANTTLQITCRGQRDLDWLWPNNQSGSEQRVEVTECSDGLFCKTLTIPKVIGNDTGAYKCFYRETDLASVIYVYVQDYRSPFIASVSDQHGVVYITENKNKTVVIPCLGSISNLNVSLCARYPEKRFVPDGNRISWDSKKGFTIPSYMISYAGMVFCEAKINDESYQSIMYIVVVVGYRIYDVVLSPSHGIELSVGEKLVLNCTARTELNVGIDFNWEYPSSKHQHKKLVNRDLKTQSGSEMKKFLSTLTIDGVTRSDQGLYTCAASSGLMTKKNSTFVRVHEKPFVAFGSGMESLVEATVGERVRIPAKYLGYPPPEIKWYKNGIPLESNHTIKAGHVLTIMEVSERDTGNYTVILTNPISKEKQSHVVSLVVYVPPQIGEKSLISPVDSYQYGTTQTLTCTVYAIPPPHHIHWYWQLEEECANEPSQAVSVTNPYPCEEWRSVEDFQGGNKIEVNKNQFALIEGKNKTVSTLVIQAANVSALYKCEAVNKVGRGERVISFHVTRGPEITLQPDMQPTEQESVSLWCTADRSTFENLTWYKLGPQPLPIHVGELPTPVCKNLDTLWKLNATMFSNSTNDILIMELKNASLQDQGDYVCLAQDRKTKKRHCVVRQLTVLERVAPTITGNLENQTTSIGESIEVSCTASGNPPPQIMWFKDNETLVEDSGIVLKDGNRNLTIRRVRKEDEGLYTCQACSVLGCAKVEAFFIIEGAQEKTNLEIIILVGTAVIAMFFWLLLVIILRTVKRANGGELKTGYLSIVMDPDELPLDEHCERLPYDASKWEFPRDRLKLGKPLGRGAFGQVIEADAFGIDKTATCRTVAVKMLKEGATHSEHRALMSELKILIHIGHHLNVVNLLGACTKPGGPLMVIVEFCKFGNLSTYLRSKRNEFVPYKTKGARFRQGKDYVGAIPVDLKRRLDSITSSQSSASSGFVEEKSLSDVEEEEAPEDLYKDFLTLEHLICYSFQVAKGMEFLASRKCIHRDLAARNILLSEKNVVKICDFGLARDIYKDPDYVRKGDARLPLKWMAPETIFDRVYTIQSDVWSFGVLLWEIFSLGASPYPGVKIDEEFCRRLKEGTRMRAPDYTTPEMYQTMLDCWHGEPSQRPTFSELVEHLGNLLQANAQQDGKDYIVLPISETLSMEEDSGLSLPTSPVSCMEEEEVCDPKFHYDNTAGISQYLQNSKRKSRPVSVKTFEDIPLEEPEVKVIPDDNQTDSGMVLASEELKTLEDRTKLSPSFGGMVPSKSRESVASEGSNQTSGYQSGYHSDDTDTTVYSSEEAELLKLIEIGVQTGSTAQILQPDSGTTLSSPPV

[4] = Rat pharmacokinetic profile; conditions: in vivo
Text: (§2) Table 7 provides additional information about the pharmacokinetic profiles of reference compound 1 and Compound A. The data contained in this table was obtained using methods well known in the art.

Human Liver Microsome = experiment: Human liver microsome clearance; format: in vitro ADME; conditions: human liver microsomes
Text: as §2

HUVEC = experiment: VEGF induced proliferation, HUVEC cell-based assay; conditions: Homo sapiens
Rat Liver Microsome = experiment: Rat liver microsome clearance; format: in vitro ADME; conditions: rat liver microsomes
Text: as §2

AUC ([1]; 0.01 mg/kg, Table 5, HCl salt Run #2, 0.01 mg/kg daily): 95.8 ng·h/mL
AUC ([1]; 0.03 mg/kg, Table 4, HCl salt Run # 1, 0.03 mg/kg daily): 162 ng·h/mL
AUC ([1]; 0.03 mg/kg, Table 5, HCl salt Run #2, 0.03 mg/kg daily): 272 ng·h/mL
AUC ([1]; 0.1 mg/kg, Table 4, HCl salt Run # 1, 0.1 mg/kg daily): 460 ng·h/mL
AUC ([1]; 0.1 mg/kg, Table 5, HCl salt Run #2, 0.1 mg/kg daily): 954 ng·h/mL
AUC ([1]; 0.3 mg/kg, Table 4, HCl salt Run # 1, 0.3 mg/kg daily): 1190 ng·h/mL
AUC ([1]; 0.3 mg/kg, Table 5, HCl salt Run #2, 0.3 mg/kg daily): 3900 ng·h/mL
AUC ([1]; 1 mg/kg, Table 4, HCl salt Run # 1, 1.0 mg/kg daily): 3640 ng·h/mL
AUC ([1]; oral, 0.01 mg/kg, Table 6, HCl salt Run #3, 0.01 mg/kg daily): 21.8 ng·h/mL
AUC ([1]; oral, 0.03 mg/kg, Table 6, HCl salt Run #3, 0.03 mg/kg daily): 80.2 ng·h/mL
AUC ([1]; oral, 0.1 mg/kg, Table 6, HCl salt Run #3, 0.1 mg/kg daily): 322 ng·h/mL
AUC ([1]; oral, 0.3 mg/kg, Table 6, HCl salt Run #3, 0.3 mg/kg daily): 677 ng·h/mL
water absorbed [2]: up to 4 molar equivalents of water
Structure (SMILES): COc1cc2nccc(Oc3ccc4c(c3)OCCN4C(=O)Nc3cc(C)on3)c2cc1OC [Compound A (HCl Salt)]
ED50 ([3]; Rattus norvegicus, Table 4, HCl salt Run # 1, number of vessels, read-out: ED50): 0.04 mg/kg
ED50 ([3]; Rattus norvegicus, Table 5, HCl salt Run #2, number of vessels, read-out: ED50): 0.15 mg/kg
Average # of Vessels ([3]; Table 4, HCl salt Run # 1, VEGF disc + 0.03 mg/kg daily): 15.3
Average # of Vessels ([3]; Table 4, HCl salt Run # 1, VEGF disc + 0.1 mg/kg daily): 9.3
Average # of Vessels ([3]; Table 4, HCl salt Run # 1, VEGF disc + 0.3 mg/kg daily): 4.3
Average # of Vessels ([3]; Table 4, HCl salt Run # 1, VEGF disc + 1.0 mg/kg daily): 0.4
Average # of Vessels ([3]; Table 5, HCl salt Run #2, VEGF disc + 0.01 mg/kg daily): 28.9
Average # of Vessels ([3]; Table 5, HCl salt Run #2, VEGF disc + 0.03 mg/kg daily): 25.5
Average # of Vessels ([3]; Table 5, HCl salt Run #2, VEGF disc + 0.1 mg/kg daily): 18.0
Average # of Vessels ([3]; Table 5, HCl salt Run #2, VEGF disc + 0.3 mg/kg daily): 7.3
Average # of Vessels ([3]; Table 6, HCl salt Run #3, VEGF disc + 0.01 mg/kg daily): 28.4
Average # of Vessels ([3]; Table 6, HCl salt Run #3, VEGF disc + 0.03 mg/kg daily): 32.0
Average # of Vessels ([3]; Table 6, HCl salt Run #3, VEGF disc + 0.1 mg/kg daily): 15.4
Average # of Vessels ([3]; Table 6, HCl salt Run #3, VEGF disc + 0.3 mg/kg daily): 4.8

IC50 (KDR): 777 nM
Structure (SMILES): COc1cc2c(Oc3ccc4c(c3)OCCN4C(=O)Nc3cc(C)on3)ccnc2cc1O [7-(7-hydroxy-6-methoxyquinolin-4-yloxy)-N-(5-methylisoxazol-3-yl)-2,3-dihydrobenzo[b][1,4]oxazine-4-carboxamide]

AUC ([1]; oral, 0.03 mg/kg, Table 2, free base, 0.03 mg/kg daily): 22.5 ng·h/mL
AUC ([1]; oral, 0.1 mg/kg, Table 2, free base, 0.1 mg/kg daily): 68.5 ng·h/mL
AUC ([1]; oral, 0.3 mg/kg, Table 2, free base, 0.3 mg/kg daily): 205 ng·h/mL
clearance ([4]; intravenous): 13.3 mL/min/kg
Vd ([4]; intravenous, read-out: Rat Volume of Distribution): 1 L/kg
half-life ([4]; iv, I.V., read-out: Rat I.V. T1/2 (converted)): 4.73 h
bioavailability ([4]; po, 2 mg/kg, P.O., 2 mpk, read-out: Rat P.O. (2 mpk) % F): 67%
AUC(0-inf) ([4]; po, 2 mg/kg, P.O., 2 mpk, read-out: Rat P.O. (2 mpk) AUC0-inf): 1710 ng·h/mL
AUC(0-t) ([4]; po, 2 mg/kg, P.O., 2 mpk, read-out: Rat P.O. (2 mpk) AUC0-t): 1700 ng·h/mL
half-life ([4]; po, 2 mpk, P.O., read-out: Rat P.O. T1/2 (converted)): 2.4 h
Human Liver Microsome (Human Liver Microsome): 29 µL/min/mg
Rat Liver Microsome (Rat Liver Microsome): 65 µL/min/mg
Structure (SMILES): COc1cc2nccc(Oc3ccc4c(c3)OCCN4C(=O)Nc3ccon3)c2cc1OC [Reference Compound 1, reference compound]
IC50 (HUVEC): 7 nM
ED50 ([3]; Rattus norvegicus, Table 2, free base, number of vessels, read-out: ED50): > 0.3 mg/kg
Average # of Vessels ([3]; Table 2, free base, VEGF disc + 0.01 mg/kg daily): 22.0
Average # of Vessels ([3]; Table 2, free base, VEGF disc + 0.03 mg/kg daily): 25.4
Average # of Vessels ([3]; Table 2, free base, VEGF disc + 0.1 mg/kg daily): 19.3
Average # of Vessels ([3]; Table 2, free base, VEGF disc + 0.3 mg/kg daily): 15.9
ED50 ([3]; free base, review of Tables 2 and 3): > 0.3 mpk

IC50 (KDR): 1.04 nM
Structure (SMILES): COc1cc2nccc(Oc3ccc4c(c3)OCCN4C(=O)Nc3cc(CO)on3)c2cc1OC [7-(6,7-dimethoxyquinolin-4-yloxy)-N-(5-(hydroxymethyl)isoxazol-3-yl)-2,3-dihydrobenzo[b][1,4]oxazine-4-carboxamide hydrochloride]

IC50 (KDR): 5000 nM
Structure (SMILES): COc1cc2c(Oc3ccc4c(c3)OCCN4C(=O)Nc3cc(C)on3)cc[n+]([O-])c2cc1OC [Compound A N-oxide]

IC50 (KDR): 1.68 nM
Structure (SMILES): COc1cc2nccc(Oc3ccc4c(c3)OCCN4C(=O)Nc3cc(C)on3)c2cc1O [7-(6-hydroxy-7-methoxyquinolin-4-yloxy)-N-(5-methylisoxazol-3-yl)-2,3-dihydrobenzo[b][1,4]oxazine-4-carboxamide]
